Values after ≈ are worked out from the molar mass of the structure shown. Active and inactive are the calls of the source. The rule behind the calls is not given here.
Columns and labels:
K562 [1] = assay: Cytotoxicity against human K562 cells after 2 to 7 days by neutral red assay; assay type: functional, cell-based
Vero [2] = assay: Cytotoxicity against african green monkey Vero cells after 2 to 7 days by neutral red assay; assay type: cell-based; conditions: chlorocebus sabaeus
Plasmodium falciparum [3] = assay: Antimalarial activity against chloroquine-resistant Plasmodium falciparum W2 after 48 hrs as LDH activity by Makler assay; assay type: functional, organism-based; conditions: W2, 48 h
KB [4] = assay: Cytotoxicity against human KB cells after 2 to 7 days by neutral red assay; assay type: functional, cell-based
BT-549 [5] = assay: Cytotoxicity against human BT549 cells after 2 to 7 days by neutral red assay; assay type: functional, cell-based
Plasmodium falciparum [6] = assay: Antimalarial activity against chloroquine-sensitive Plasmodium falciparum D6 after 48 hrs as LDH activity by Makler assay; assay type: functional, organism-based; conditions: D6, 48 h
SK-OV-3 [7] = assay: Cytotoxicity against human SKOV3 cells after 2 to 7 days by neutral red assay; assay type: functional, cell-based
K562 [8] = assay: Cytotoxicity against human K562 cells at <=10 ug/ml after 2 to 7 days by neutral red assay; assay type: functional, cell-based
BT-549 [9] = assay: Cytotoxicity against human BT549 cells <=10 ug/ml after 2 to 7 days by neutral red assay; assay type: functional, cell-based
SK-OV-3 [10] = assay: Cytotoxicity against human SKOV3 cells <=10 ug/ml after 2 to 7 days by neutral red assay; assay type: functional, cell-based
Vero [11] = assay: Cytotoxicity against african green monkey Vero cells <=10 ug/ml after 2 to 7 days by neutral red assay; assay type: cell-based; conditions: chlorocebus sabaeus
KB [12] = assay: Cytotoxicity against human KB cells <=10 ug/ml after 2 to 7 days by neutral red assay; assay type: functional, cell-based
Crithidia fasciculata = assay: Trypanocidal activity against Crithidia fasciculata ATCC 11745 at <=20 ug/ml after 48 hrs by SRB assay; assay type: functional, organism-based
Giardia intestinalis = assay: Antiparasitic activity against Giardia intestinalis ATCC 30888 at <=20 ug/ml after 24 hrs by XTT assay; assay type: functional, organism-based; conditions: Giardia duodenalis
Plasmodium falciparum [13] = assay: Antimalarial activity against chloroquine-sensitive Plasmodium falciparum D6 at <=10 ug/ml after 48 hrs as LDH activity by Makler assay; assay type: functional, organism-based
Plasmodium falciparum [14] = assay: Antimalarial activity against chloroquine-resistant Plasmodium falciparum W2 at <=10 ug/ml after 48 hrs as LDH activity by Makler assay; assay type: functional, organism-based

`CC1=CC(=O)[C@@H](O)[C@]2(C)[C@H]3[C@]4(O)OC[C@]35[C@H]([C@@H](C)[C@H]4O)[C@@H](O)C(=O)O[C@@H]5C[C@@H]12` [GLAUCARUBOLONE] showed an IC50 (K562 [1]) of 0.6 µg/mL (≈ 1.52 µM), an IC50 (Vero [2]) of 1.5 µg/mL (≈ 3.8 µM) and an IC50 (Plasmodium falciparum [3]) of 0.2 µg/mL (≈ 0.507 µM). For the same compound, the IC50 (KB [4]) was 1 µg/mL (≈ 2.54 µM), the IC50 (BT-549 [5]) was 0.4 µg/mL (≈ 1.01 µM) and the IC50 (Plasmodium falciparum [6]) was 0.125 µg/mL (≈ 0.317 µM). The IC50 (SK-OV-3 [7]) was 0.8 µg/mL (≈ 2.03 µM).

Compound `COc1cccc2c1C(=O)c1c(O)c3c(c(O)c1C2=O)C[C@@](O)(C(=O)CO)C[C@@H]3O[C@H]1C[C@H](N)[C@H](O)[C@H](C)O1` [DOXORUBICIN] has an IC50 (K562 [1]) of 0.035 µg/mL (≈ 0.0644 µM), an IC50 (Vero [2]) of 1.5 µg/mL (≈ 2.76 µM) and an IC50 (KB [4]) of 0.12 µg/mL (≈ 0.221 µM). For the same compound, the IC50 (BT-549 [5]) was 0.008 µg/mL (≈ 0.0147 µM) and the IC50 (SK-OV-3 [7]) was 0.01 µg/mL (≈ 0.0184 µM).

`CC1=C[C@H](O)[C@@H](O)[C@]2(C)[C@H]3[C@@]4(O)OC[C@@]35[C@@H](C[C@@H]12)OC(=O)C[C@H]5[C@@H](C)[C@H]4O` [CHAPARRIN] was tested, and the Activity (K562 [8]) was “inactive”, the IC50 (Plasmodium falciparum [3]) was 0.35 µg/mL (≈ 0.92 µM) and the Activity (BT-549 [9]) was “inactive”. The Activity (SK-OV-3 [10]) was “inactive”, the Activity (Vero [11]) was “Not Active” and the Activity (KB [12]) was “inactive”. It also gave an IC50 (Plasmodium falciparum [6]) of 0.25 µg/mL (≈ 0.657 µM).

For `C[C@@H]1C[C@H](O)C(=O)[C@]2(C)[C@H]3[C@H](OC(=O)/C=C/c4ccc(O)cc4)C(=O)[C@H](C)[C@@H]4CC(=O)O[C@H](C[C@@H]12)[C@]34C`, the Activity (Crithidia fasciculata) was “inactive”, the Activity (Giardia intestinalis) was “inactive” and the Activity (K562 [8]) was “inactive”. The IC50 (Plasmodium falciparum [3]) was 0.75 µg/mL (≈ 1.47 µM), the Activity (BT-549 [9]) was “inactive” and the Activity (SK-OV-3 [10]) was “inactive”. The Activity (Vero [11]) was “Not Active”, the Activity (KB [12]) was “inactive” and the IC50 (Plasmodium falciparum [6]) was 0.92 µg/mL (≈ 1.8 µM).

`CC(=O)O[C@H]1C(=O)O[C@@H]2C[C@H]3C(C)=CC(=O)[C@@H](O)[C@]3(C)[C@H]3[C@]4(O)OC[C@]32[C@@H]1[C@@H](C)[C@H]4O` [HOLACANTHONE] gave an IC50 (K562 [1]) of 1 µg/mL (≈ 2.29 µM), an IC50 (Vero [2]) of 1 µg/mL (≈ 2.29 µM) and an IC50 (Plasmodium falciparum [3]) of 0.012 µg/mL (≈ 0.0275 µM). The IC50 (KB [4]) was 0.5 µg/mL (≈ 1.15 µM), the IC50 (BT-549 [5]) was 0.3 µg/mL (≈ 0.687 µM) and the IC50 (Plasmodium falciparum [6]) was 0.01 µg/mL (≈ 0.0229 µM). It also gave an IC50 (SK-OV-3 [7]) of 0.5 µg/mL (≈ 1.15 µM).

With `CC1=C[C@H](O)[C@@H](O)[C@]2(C)[C@H]3[C@]4(O)OC[C@]35[C@H]([C@@H](C)[C@H]4O)[C@@H](O[C@@H]3O[C@H](CO)[C@@H](O)[C@H](O)[C@H]3O)C(=O)O[C@@H]5C[C@@H]12` the Activity (Plasmodium falciparum [13]) was “inactive”, the Activity (K562 [8]) was “inactive” and the Activity (BT-549 [9]) was “inactive”. The Activity (SK-OV-3 [10]) was “inactive”, the Activity (Plasmodium falciparum [14]) was “inactive” and the Activity (Vero [11]) was “Not Active”. For the same compound, the Activity (KB [12]) was “inactive”.

`CC1=CC(=O)[C@@H](O)[C@]2(C)[C@H]3[C@@]4(O)OC[C@@]35[C@@H](C[C@@H]12)OC(=O)C[C@H]5[C@@H](C)[C@H]4O` [CHAPARRINONE] gave an IC50 (K562 [1]) of 1.8 µg/mL (≈ 4.76 µM), an IC50 (Vero [2]) of 1.5 µg/mL (≈ 3.96 µM) and an IC50 (Plasmodium falciparum [3]) of 0.2 µg/mL (≈ 0.529 µM). For the same compound, the IC50 (KB [4]) was 1.2 µg/mL (≈ 3.17 µM), the IC50 (BT-549 [5]) was 0.8 µg/mL (≈ 2.11 µM) and the IC50 (Plasmodium falciparum [6]) was 0.25 µg/mL (≈ 0.661 µM). It also gave an IC50 (SK-OV-3 [7]) of 0.5 µg/mL (≈ 1.32 µM).

For `C[C@@H]1C[C@H](O)C(=O)[C@]2(C)[C@H]3[C@H](O)C(=O)[C@H](C)[C@@H]4CC(=O)O[C@H](C[C@@H]12)[C@]34C` [AMAROLIDE], the Activity (Plasmodium falciparum [13]) was “inactive”, the Activity (K562 [8]) was “inactive” and the Activity (BT-549 [9]) was “inactive”. The Activity (SK-OV-3 [10]) was “inactive”, the Activity (Plasmodium falciparum [14]) was “inactive” and the Activity (Vero [11]) was “Not Active”. The Activity (KB [12]) was “inactive”.

From ChEMBL document CHEMBL1151670, “A new quassinoid from Castela texana” (J Nat Prod, 1996)
